Reference: publication PMC7732128, “Regulation of gene transcription by thyroid hormone receptor β agonists in clinical development for the treatment of non-alcoholic steatohepatitis (NASH)” (PLoS ONE, 2020)
Entries after “also recorded” stand apart in the source; their conditions may differ. Where two headings read alike, the source gives them in different places.

Key:
[1] = tested on: HFD fed rats; experiment: High-fat diet fed rat study: serum and hepatic lipid levels; type: in vivo
Description: Animals were purchased from Vital River Laboratory Animal Technology Co. Ltd. and experiments were conducted at Covance Pharmaceutical R&D (Shanghai) Co., Ltd. (China). Animals were group-housed in polycarbonate cages with corncob bedding under controlled temperature (21–25°C), humidity (40–70%), and a 12-hr light/dark cycle. All procedures performed were in compliance with local animal welfare legislation, Covance global policies and procedures, and the Guide for the Care and Use of Laboratory Animals.
(§1) Eighty-four male Sprague Dawley rats, approximately 8 to 11 weeks of age, were fed with either a normal diet, ND (D12450K: 10 kcal% fat, no sucrose), or high-fat diet, HFD (D12109C: 40 kcal% fat, 1.25 gm% cholesterol, 0.5 gm% sodium cholate, 12.5 gm% sucrose). After 12 days of diet consumption, baseline serum total cholesterol and low-density lipoprotein cholesterol (LDL-C) levels were measured with the cobas 6000 c501 Chemistry Analyzer (Roche) to confirm hypercholesterolemia in the HFD fed rats. Animals were then randomized into treatment groups.
(§2) Twenty-four hrs after dosing, animals were euthanized by CO2 inhalation and serum and plasma were collected along with liver tissue. Serum total cholesterol and LDL-C levels were determined as described above. […] Caudate lobes of the liver were used for analysis of hepatic total cholesterol (Abcam, ab65390) and triglyceride levels (Abcam, ab65336) via enzyme-linked immunosorbent assay. Right lateral lobes were stored in RNAlater (Invitrogen, AM7020) at -70°C until homogenization with the Scientz-48 TissueLyser LT for downstream gene expression analysis. RNA extraction was performed at WuXi AppTec (Hong Kong) Limited (China) with the RNeasy Mini Kit (Qiagen, 74106) and RNA concentration and quality was determined using the Nanodrop 2000 (Thermo Scientific); additional quality control was assessed with agarose gel electrophoresis. One μg total RNA from each sample was then reverse-transcribed using the High Capacity cDNA Reverse Transcription kit (Applied Biosystems, 4368814) and the resulting cDNA was diluted 1:5 with nuclease-free, distilled water. Gene expression was measured using TaqMan Fast Advanced Master Mix and the following TaqMan Gene Expression assays: Actb (Rn00667869_m1), Cpt1a (Rn00580702_m1), Dio1 (Rn00572183_m1), Me1 (Rn00561502_m1), Rplp1 (Rn03467157_gH), and Thrsp (Rn01511034_m1). Actb and Rplp1 served as control housekeeping genes. Ten μL reactions were run on the qTOWER³ 84. Relative quantification (RQ) of gene expression was calculated via the 2^−ΔΔCt method and statistical analysis was performed in GraphPad Prism 8.0 and Microsoft Excel.

[2] = High-fat diet fed rat study: plasma compound concentration (LC-MS/MS); type: in vivo; conditions: male, Sprague Dawley, po, HFD rats, read-out: Plasma AUC0-24hrs
Description: as §1
as §2, with “Ten μL reactions were run on the qTOWER³ 84.” left out

[3] = tested on: THR (liver Cpt1a, Dio1, Me1, Thrsp RNA); experiment: High-fat diet fed rat study: liver gene expression; type: in vivo; conditions: HFD rats
Description: as §1
as §2, with “Serum” for “Twenty-four hrs after dosing, animals were euthanized by CO2 inhalation and serum and plasma were collected along with liver tissue. Serum”

[4] = tested on: THRβ (α:β); parameters: method as in PMID 32768645; conditions: coactivator recruitment assay; cited from earlier work
[5] = 0.5 mg/kg P.O. single dose, 24 hrs
[6] = 5.0 and 1.5 mg/kg P.O. single dose, 24 hrs post-dose
[7] = 4 hrs after 5.0 or 1.5 mg/kg, vs vehicle

Structure (SMILES)	effect on serum LDL-C [1, 5]	effect on serum total cholesterol [1, 5]	effect on serum triglyceride levels [1, 5]	decrease in serum triglyceride levels (pre-dose vs 24 hrs post-dose) ([1]; 1.5 mg/kg P.O. single dose)	decrease in serum total cholesterol (pre-dose vs 24 hrs post-dose) ([1]; 5 mg/kg P.O. single dose)	decrease in serum triglyceride levels (pre-dose vs 24 hrs post-dose) ([1]; 5.0 mg/kg P.O. single dose)	effect on hepatic cholesterol levels [1, 6]	effect on hepatic triglyceride levels [1, 6]	AUC(0-t) ([2]; 0.5 mg/kg P.O. single dose)	AUC(0-t) ([2]; 1.5 mg/kg P.O. single dose)	AUC(0-t) ([2]; 5.0 mg/kg P.O. single dose)	liver Cpt1a, Dio1 and Thrsp RNA levels [3, 7]	liver Me1 RNA level [3, 7]	increases in liver Cpt1a and Thrsp RNA levels ([3]; 24 hrs after 5.0 or 1.5 mg/kg)	liver Dio1 and Me1 transcription ([3]; 24 hrs after 5.0 or 1.5 mg/kg, vs vehicle)	increase in liver Dio1 expression between doses ([3]; between 1.5 and 5 mg/kg)	selectivity for THRβ (α:β) [4]
CC(C)c1cc(Oc2c(Cl)cc(-n3nc(C#N)c(=O)[nH]c3=O)cc2Cl)n[nH]c1=O [MGL-3196, 2-[3,5-dichloro-4-(5-isopropyl-6-oxo-1,6-dihydropyridazin-3-yloxy)phenyl]-3,5-dioxo-2,3,4,5-tetrahydro[1,2,4]triazine-6-carbonitrile]	did not significantly lower	no significant effect; also recorded: did not significantly lower	did not have a significant effect; also recorded: did not significantly lower	37.5%	33.6%	32.1%	did not significantly affect	did not significantly affect	2600 ng·h/mL	8200 ng·h/mL	21700 ng·h/mL	activated the transcription of Cpt1a, Dio1, and Thrsp in a dose-dependent manner	no significant increase	dampened	significantly increased	1.3 fold	–
Cc1cc(OCP(=O)(O)O)cc(C)c1Cc1ccc(O)c(C(C)C)c1 [VK2809A]	–	–	–	–	–	–	–	–	–	–	–	–	–	–	–	–	2.1
